Experiments:
[1] = biological target: T1, Beta-3 adrenergic receptor (Homo sapiens, UniProt P13945); experiment: Human Beta-3 adrenergic receptor intrinsic activity (IA) as maximal response relative to isoproterenol at […]; assay type: functional
Target sequence in this assay (P13945 whole entry, looked up): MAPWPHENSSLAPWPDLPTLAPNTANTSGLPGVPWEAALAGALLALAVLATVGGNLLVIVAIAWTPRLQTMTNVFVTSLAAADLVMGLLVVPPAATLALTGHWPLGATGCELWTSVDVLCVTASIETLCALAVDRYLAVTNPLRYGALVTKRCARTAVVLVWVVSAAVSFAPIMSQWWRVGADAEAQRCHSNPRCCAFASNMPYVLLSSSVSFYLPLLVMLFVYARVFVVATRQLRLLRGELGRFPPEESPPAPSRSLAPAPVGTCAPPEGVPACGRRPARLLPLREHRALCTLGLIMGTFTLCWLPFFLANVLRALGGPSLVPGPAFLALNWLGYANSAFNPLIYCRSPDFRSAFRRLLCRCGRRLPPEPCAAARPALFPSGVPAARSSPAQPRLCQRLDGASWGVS

[2] = biological target: T2, Beta-1 adrenergic receptor (Homo sapiens, UniProt P08588); experiment: (§1) Binding affinity of compound against Beta-1 adrenergic receptor was determined; assay type: functional
Target sequence in this assay (P08588 whole entry): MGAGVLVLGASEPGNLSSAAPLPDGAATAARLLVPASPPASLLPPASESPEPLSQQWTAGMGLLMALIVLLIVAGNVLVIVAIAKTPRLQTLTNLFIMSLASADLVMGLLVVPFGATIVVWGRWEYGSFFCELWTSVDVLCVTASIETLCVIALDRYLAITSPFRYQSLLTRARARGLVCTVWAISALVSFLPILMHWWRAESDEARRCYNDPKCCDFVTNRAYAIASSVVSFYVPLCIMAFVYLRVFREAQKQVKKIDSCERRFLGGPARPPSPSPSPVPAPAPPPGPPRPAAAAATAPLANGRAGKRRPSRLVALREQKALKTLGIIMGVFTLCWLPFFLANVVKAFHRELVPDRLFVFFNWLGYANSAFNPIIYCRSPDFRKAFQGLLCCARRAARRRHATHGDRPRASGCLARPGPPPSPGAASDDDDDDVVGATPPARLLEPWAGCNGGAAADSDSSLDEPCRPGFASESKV

[3] = biological target: T1, Beta-3 adrenergic receptor; experiment: Evaluated in vivo using transgenic mice containing the human Beta-3-Adrenoceptor and increase in themogenesis was determined; assay type: functional, organism-based; settings: Mus musculus
Target sequence in this assay (P13945 whole entry, looked up): as the sequence (P13945 whole entry, looked up) above

[4] = biological target: T2, Beta-1 adrenergic receptor; experiment: Beta-1 adrenergic receptor agonist activity as increased cAMP levels in CHO cells expressing human Beta-1-adrenoceptor; assay type: functional, cell-based
Target sequence in this assay (P08588 whole entry): as the sequence (P08588 whole entry) above

[5] = biological target: T3, Beta-2 adrenergic receptor (Homo sapiens, UniProt P07550); experiment: Beta-2 adrenergic receptor agonist activity as increased cAMP levels in CHO cells expressing human Beta-2-adrenoceptor; assay type: functional, cell-based
T3 sequence (P07550 whole entry): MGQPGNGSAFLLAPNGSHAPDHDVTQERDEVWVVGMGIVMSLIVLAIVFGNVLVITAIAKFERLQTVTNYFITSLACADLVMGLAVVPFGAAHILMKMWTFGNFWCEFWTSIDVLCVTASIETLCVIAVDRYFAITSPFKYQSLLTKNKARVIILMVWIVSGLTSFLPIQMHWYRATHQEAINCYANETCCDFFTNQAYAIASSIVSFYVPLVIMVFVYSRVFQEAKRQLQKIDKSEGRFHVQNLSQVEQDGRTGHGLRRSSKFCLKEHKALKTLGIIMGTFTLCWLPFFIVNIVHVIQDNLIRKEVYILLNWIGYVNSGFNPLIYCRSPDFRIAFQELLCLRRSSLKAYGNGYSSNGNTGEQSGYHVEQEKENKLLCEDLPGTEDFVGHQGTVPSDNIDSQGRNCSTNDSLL

[6] = biological target: T3, Beta-2 adrenergic receptor; experiment: Binding affinity of compound against Beta-2 adrenergic receptor was determined
[7] = biological target: T1, Beta-3 adrenergic receptor; experiment: Beta-3 adrenergic receptor agonist activity as increased cAMP levels in CHO cells expressing human Beta-3-adrenoceptor; assay type: functional, cell-based
Target sequence in this assay (P13945 whole entry): as the sequence (P13945 whole entry, looked up) above

[8] = biological target: T3, Beta-2 adrenergic receptor; experiment: Beta-2 adrenergic receptor agonist activity was determined by a measurement of increased cAMP levels in CHO cells expressing human Beta-2 adrenergic receptor; assay type: functional, cell-based
[9] = biological target: T2, Beta-1 adrenergic receptor; experiment: as §1
Target sequence in this assay (P08588 whole entry): as the sequence (P08588 whole entry) above

[10] = biological target: T1, Beta-3 adrenergic receptor; experiment: Beta-3 adrenergic receptor agonist activity was determined by a measurement of increased cAMP levels in CHO cells expressing human Beta-3-adrenoceptor; IA is Inactive; assay type: functional, cell-based
Target sequence in this assay (P13945 whole entry): as the sequence (P13945 whole entry, looked up) above

[11] = biological target: T2, Beta-1 adrenergic receptor; experiment: Human Beta-1 adrenergic receptor determined as the maximal response divided by the maximal response of isoproterenol at […].; assay type: functional
Target sequence in this assay (P08588 whole entry, looked up): as the sequence (P08588 whole entry) above

Row | SMILES | Intrinsic activity [1] | EC50 [4] [nM] | EC50 [5] [nM] | EC50 [7] [nM] | other results
1 | CCCCCCCCC(=O)Nc1ccc(S(=O)(=O)N2CCC(CNC[C@H](O)c3ccc(O)c(NS(C)(=O)=O)c3)CC2)cc1 | 1 | 730 | 30 | 6 | Ki [2]: 6600 nM; Increase [3]: 10%; Ki [6]: 140 nM
2 | CS(=O)(=O)Nc1cc([C@@H](O)CNCC2CCN(S(=O)(=O)c3ccc(NC(=O)NCc4cc(F)ccc4F)cc3)CC2)ccc1O | 0.93 | 3160 | – | 5 | EC50 [8]: 30 nM
3 | CS(=O)(=O)Nc1cc([C@@H](O)CNCC2CCN(c3ccc(C(=O)N[C@@H](CC(=O)O)C(=O)O)cc3)CC2)ccc1O | 0.95 | 580 | 5 | – | –
4 | CC(C)C[C@H](NC(=O)c1ccc(N2CCC(CNC[C@H](O)c3ccc(O)c(NS(C)(=O)=O)c3)CC2)cc1)C(=O)O | 1 | 1860 | 1000 | – | –
5 | CS(=O)(=O)Nc1cc([C@@H](O)CNCC2CCN(S(=O)(=O)c3ccc(-n4cc(C(=O)O)cn4)cc3)CC2)ccc1O | 0.93 | 1000 | 10 | – | –
6 | CS(=O)(=O)Nc1cc([C@@H](O)CNCC2CCN(S(=O)(=O)c3ccc(-n4cc(CC(=O)O)c5ccccc54)cc3)CC2)ccc1O | 0.96 | 30 | 30 | – | Ki [9]: 240 nM; Ki [6]: 180 nM
7 | CS(=O)(=O)Nc1cc([C@@H](O)CNCC2CCN(S(=O)(=O)c3ccc(-n4ccc5c(C(=O)O)cccc54)cc3)CC2)ccc1O | 1 | 50 | 60 | – | –
8 | CCCCCCCCNC(=O)Nc1ccc(S(=O)(=O)N2CCC(CNC[C@H](O)c3cc(NS(C)(=O)=O)c4[nH]ccc4c3)CC2)cc1 | – | – | – | – | EC50 [10]: Not Active
9 | CCCCCCCCNC(=O)Nc1ccc(S(=O)(=O)N2CCC(CNC[C@H](O)c3ccc4[nH]ccc4c3)CC2)cc1 | – | – | – | – | EC50 [10]: Not Active
10 | CS(=O)(=O)Nc1cc([C@@H](O)CNCC2CCN(c3ccc(C(=O)N[C@@H](Cc4ccccc4)C(=O)O)cc3)CC2)ccc1O | 1.2 | 520 | 20000 | 31 | Intrinsic activity [11]: 0.6
11 | CS(=O)(=O)Nc1cc([C@@H](O)CNCC2CCN(S(=O)(=O)c3ccc(NC(=O)N[C@@H](Cc4ccccc4)C(=O)O)cc3)CC2)ccc1O | 1.2 | 520 | 20 | 31 | –
12 | CC(C)N(Cc1cc(F)ccc1F)C(=O)Nc1ccc(S(=O)(=O)N2CCC(CNC[C@H](O)c3ccc(O)c(NS(C)(=O)=O)c3)CC2)cc1 | 0.93 | 6300 | 12 | 27 | –

— ChEMBL document CHEMBL1135848, “Novel substituted 4-aminomethylpiperidines as potent and selective human beta3-agonists. Part 2: arylethanolaminomethylpiperidines” (Bioorg Med Chem Lett, 2002)
